Test results: patent US20250163057A1, “DCN-1 MODULATING COMPOUNDS AND METHODS OF USE THEREOF” (Cellarity, Inc., priority 2023, published 2025)

Legend:
Assay type in all cases: binding
[1] = biological target: DCN1 (DCUND1) protein PONY domain (Homo sapiens (Human), UniProt Q96GG9); assay: Off-rate measurement of reversible covalent molecules (jump dilution TR-FRET with Cy5 probe); conditions: for Category: binding mode category from off-rate assay; for residence time: inverse of rate constant K; for residence time / half-life: jump dilution TR-FRET; for koff: jump dilution, Cy5 covalent probe 150 nM, TR-FRET; for half-life: ln(2)/K
DCN1 protein = DCN1 protein (Homo sapiens (Human), UniProt Q96GG9); assay: Intact Protein MS Analysis with the RapidFire-TOF System (covalent adduct formation); conditions: MS Emax; 400 nM DCN1, 3 hours at room temperature
Procedure, shortened: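 Tag-cleaved human DCN1 (400 nM) expressed in E. coli, in 25 mM Tris-HCl, 200 mM NaCl, 1 mM DTT, was incubated with 11 compound concentrations for 3 h at room temperature and quenched with 0.2% formic acid. Intact-protein Q-TOF MS with deconvolution detected the compound adduct mass.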

[2] = biological target: DCN2 (DCUND2) protein PONY domain (Homo sapiens (Human), UniProt Q6PH85); assay: Measurement of Kinact/KI in the DCN2 TR-FRET Assay; conditions: for kinact/KI: read-out: Kinact/KI (converted); for Ki / kinact: time-dependent IC50 over 24 hrs; for kinact: read-out: Kinact (converted)
Protocol: A TR-FRET Assay was performed to evaluate the ability of the compounds to bind DCN-2.
The time resolved—Forster's resonance energy transfer (TR-FRET) assay was designed following the protocol established in (Scott et al., Nat Chem Biol. 2017 August; 13(8): 850-857). A recombinant form of the DCN2 (DCUND2) protein PONY domain was produced using an E. coli expression system at Viva Biotech China. The DCN2 protein was biotinylated (EZ sulfo-NHS-LC-biotin; Thermofisher) for labeling with 2.5 nM streptavidin terbium (Tb) cryptate in the reaction. The probe was changed to a non-covalent DCN1 inhibitor labeled with carboxyfluorescein (FAM; Zhou et al, Nat Commun. 2017; 8: 1150). Buffer conditions were modified to enhance protein stability by replacing TritonX with 0.05% Tween20 and increasing NaCl to 200 mM. The compounds were screened against 0.31 nM DCN1 and 40 nM FAM-labeled probe in a 40 ul reaction volume. The TR-FRET ratio between Tb-DCN1 and the FAM-labeled probe was measured in a 384-well opti-plate (Perkin Elmer) using a plate reader (BMG) at after treatment with compound (final DMSO concentration of 0.1%). The ratio was normalized to the high (DCN1 and FAM-probe) and low (DCN1 and no probe) controls for a readout of % activity (=100*(x−low)/(high−low)).
The Kinact and KI measurements were taken to allow for continuous reads over 24 hrs. Plates were read every 5 min up to 1 hr, every 15 min up to 5 hr, and every hour up to […]. Kinact and KI were calculated based on the following equations (Krippendorff B F, et al. Mechanism-based inhibition: deriving K(I) and k(inact) directly from time-dependent IC(50) values. J BiomolScreen. 2009; Mons E et al. A Comprehensive Guide for Assessing Covalent Inhibition in Enzymatic Assays Illustrated with Kinetic Simulations. CurrProtoc. 2022) where the KM of the probe against DCN2 is 21.62 nM. The Kinact and KI values could be estimated from the tight curves of the IC50 values over time.

Sequence of DCN1 (DCUND1) protein PONY domain (Q96GG9 60-248): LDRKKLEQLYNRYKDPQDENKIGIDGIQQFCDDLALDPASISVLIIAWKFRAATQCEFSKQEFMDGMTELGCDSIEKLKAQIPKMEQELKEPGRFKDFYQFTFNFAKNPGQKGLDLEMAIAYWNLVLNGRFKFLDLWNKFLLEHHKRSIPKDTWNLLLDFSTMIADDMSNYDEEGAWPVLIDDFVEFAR
Sequence of DCN2 (DCUND2) protein PONY domain (Q6PH85 60-248): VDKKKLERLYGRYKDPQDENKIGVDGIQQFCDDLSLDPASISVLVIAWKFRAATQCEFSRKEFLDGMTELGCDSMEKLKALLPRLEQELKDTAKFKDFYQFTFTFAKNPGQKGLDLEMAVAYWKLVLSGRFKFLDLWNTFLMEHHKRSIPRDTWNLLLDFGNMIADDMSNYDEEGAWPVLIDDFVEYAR
Sequence of DCN1 protein (Q96GG9 whole entry): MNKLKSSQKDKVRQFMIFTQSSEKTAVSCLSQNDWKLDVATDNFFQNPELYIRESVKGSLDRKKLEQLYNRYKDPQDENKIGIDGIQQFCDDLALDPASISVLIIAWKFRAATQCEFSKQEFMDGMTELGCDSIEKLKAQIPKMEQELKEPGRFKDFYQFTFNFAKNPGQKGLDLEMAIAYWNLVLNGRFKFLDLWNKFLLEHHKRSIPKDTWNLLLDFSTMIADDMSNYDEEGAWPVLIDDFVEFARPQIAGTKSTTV

| SMILES | Category [1] | residence time [1] [min] | koff [1] [s⁻¹] | half-life [1] [h] | % Adduct Formation (DCN1 protein) | kinact/KI [2] [M⁻¹ s⁻¹] | Ki [2] [nM] | kinact [2] [s⁻¹] |
| --- | --- | --- | --- | --- | --- | --- | --- | --- |
| CCN1C(=O)[C@@H](NC(=O)c2cccc(C(F)(F)F)c2)[C@@H](c2ccc(F)cc2)c2c(C(=O)N(C)[C@H](C#N)CCN(C)C)nn(C3CCOCC3)c21 [Compound I-370] | fast reversible | 78.6 | 0.000212 | 0.908 | +++ (MS Emax % adduct formation greater than 80.0 and less than or equal to 100.0) | 107000 | 0.488 | 5.17e-05 |
| CCN1C(=O)[C@@H](NC(=O)c2cccc(C(F)(F)F)c2)[C@@H](C2CC2)c2c(C(=O)N3CCNC[C@H]3C#N)nn(-c3ccccc3)c21 [Compound I-383] | irreversible covalent |  |  |  | +++ (MS Emax % adduct formation greater than 80.0 and less than or equal to 100.0) | 48300 | 95.8 | 0.00465 |
| CCN1C(=O)[C@@H](NC(=O)c2cccc(C(F)(F)F)c2)[C@@H](C)c2c(C(=O)N3[C@H](C#N)C[C@H]4C[C@H]43)nn(C3CCOCC3)c21 [Compound I-387] | reversible covalent | 144 | 0.000116 | 1.67 | +++ (MS Emax % adduct formation greater than 80.0 and less than or equal to 100.0) | 46700 | 157 | 0.00727 |
